Assays:
IRAK1 = IRAK1 (Homo sapiens, UniProt P51617); assay: Adapta Universal Kinase Assay (ThermoFisher) against IRAK1; format: biochemical; conditions: Histone H3 (1-20) peptide substrate, 60 minutes at room temperature
Protocol: To measure the IC50 values of the compounds herein against IRAK1, the Adapta Universal Kinase Assay (ThermoFisher) was used. Briefly, 100 nL of different concentrations of the compounds in 100% DMSO were added to each well of a 384-well plate (Corning Cat. #4512). 2.4 μL of 30 mM HEPES, 2.5 μL of 4× ATP solution (in water), and 5 μL of 2× IRAK1/Histone H3 (1-20) peptide mixture (prepared in 50 mM HEPES pH 7.5, 0.01% BRIJ-35, 10 mM MgCl2, 1 mM EGTA) were added to each well. The plate was shaken for 30 seconds and centrifuged for 1 minute at 1000×g. The plate was then incubated at room temperature for 60 minutes. 5 μL of Detection Mix was added to each well. The plate was shaken for 30 seconds and centrifuged for 1 minute at 1000×g. The plate was then incubated at room temperature for 60 minutes. The plate was subsequently read on a fluorescence plate reader, and the emissions ratio was calculated to determine the ratio of ATP to ADP. Emissions Ratio=AF647 Emission (665 nm)/Europium Emission (615 nm).

IRAK4 = biological target: T1, IRAK4 (Homo sapiens, UniProt Q9NWZ3); assay: Z'-LYTE assay (ThermoFisher) against IRAK4; format: biochemical; conditions: Ser/Thr 07 substrate, 60 minutes at room temperature
T1 sequence (Q9NWZ3 1-460): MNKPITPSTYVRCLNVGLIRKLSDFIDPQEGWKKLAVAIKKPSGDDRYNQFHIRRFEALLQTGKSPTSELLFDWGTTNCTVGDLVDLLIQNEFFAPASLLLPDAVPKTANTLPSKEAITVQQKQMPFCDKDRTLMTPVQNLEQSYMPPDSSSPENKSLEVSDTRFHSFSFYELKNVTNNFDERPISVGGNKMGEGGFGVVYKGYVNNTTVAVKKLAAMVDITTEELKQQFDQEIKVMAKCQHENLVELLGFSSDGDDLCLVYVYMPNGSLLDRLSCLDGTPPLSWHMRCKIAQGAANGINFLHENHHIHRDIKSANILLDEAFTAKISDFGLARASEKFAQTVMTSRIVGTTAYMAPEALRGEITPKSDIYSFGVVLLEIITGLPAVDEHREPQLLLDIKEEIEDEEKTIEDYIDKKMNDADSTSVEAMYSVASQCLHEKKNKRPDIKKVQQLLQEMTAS
Protocol: To measure the IC50 values of compounds herein against IRAK4, a Z′-LYTE assay (ThermoFisher) was used. Briefly, 2.5 μL of different concentrations of the compounds in 1% DMSO were added to 2.4 μL kinase buffer (50 mM HEPES pH 7.5, 0.01% BRIJ-35, 10 mM MgCl2, 1 mM EGTA) in each well of a 384-well plate (Corning Cat. #3676). 5 μL of 2× IRAK4/Ser/Thr 07 mixture (prepared in 50 mM HEPES pH 7.5, 0.01% BRIJ-35, 10 mM MnCl2, 2 mM DTT, and 0.02% NaN3) and 2.5 μL of 4× ATP solution (4× ATP, 50 mM HEPES, pH 7.5, 0.01% BRIJ-35, 10 mM MgCl2, 1 mM EGTA) were added to each well. The plate was shaken for 30 seconds, and then incubated at room temperature for 60 minutes. 5 μL of a 1:100000 dilution of Development Reagent A was added to each well. The plate was shaken for 30 seconds and incubated for 60 minutes at room temperature. The plate was subsequently read on a fluorescence plate reader, and the emissions ratio was calculated to determine the ratio of Ser/Thr 07 phosphorylated by the reaction. Emissions Ratio=Coumarin Emission (443 nm)/Flourescein Emission (520 nm).

Sequence of IRAK1 (P51617 whole entry): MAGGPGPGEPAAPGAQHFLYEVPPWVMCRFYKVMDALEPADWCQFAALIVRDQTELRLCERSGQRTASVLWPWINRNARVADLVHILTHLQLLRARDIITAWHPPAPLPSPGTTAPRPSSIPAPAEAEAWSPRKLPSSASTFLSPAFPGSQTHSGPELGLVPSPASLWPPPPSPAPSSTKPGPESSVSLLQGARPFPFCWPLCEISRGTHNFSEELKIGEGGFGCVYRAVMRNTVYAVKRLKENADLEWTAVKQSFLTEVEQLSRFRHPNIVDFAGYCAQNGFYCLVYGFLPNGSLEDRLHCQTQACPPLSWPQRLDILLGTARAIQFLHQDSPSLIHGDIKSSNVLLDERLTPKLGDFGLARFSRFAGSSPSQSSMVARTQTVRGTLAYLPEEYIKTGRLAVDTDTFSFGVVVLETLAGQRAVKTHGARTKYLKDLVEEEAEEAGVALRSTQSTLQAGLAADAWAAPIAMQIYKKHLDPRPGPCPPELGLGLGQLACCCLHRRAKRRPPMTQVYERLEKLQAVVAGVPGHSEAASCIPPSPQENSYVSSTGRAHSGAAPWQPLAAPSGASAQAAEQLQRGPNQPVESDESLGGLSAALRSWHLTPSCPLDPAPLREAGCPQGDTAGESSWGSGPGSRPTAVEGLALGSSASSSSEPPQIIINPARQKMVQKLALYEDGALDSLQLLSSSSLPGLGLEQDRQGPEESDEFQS

SMILES | IC50 (IRAK1) [nM] | IC50 (IRAK4) [nM]
C=CC(=O)N1C[C@@H](c2nc(-c3ccc(NC(=O)c4cccc(-c5ccn[nH]5)n4)nc3)no2)C[C@@H](C(F)(F)F)C1 [Compound 062] | 94.2 | > 10000
C=CC(=O)N1C[C@@H](c2nc(-c3ccc(NC(=O)c4cccc(-c5ccn[nH]5)n4)nc3)no2)CC(F)(F)C1 [Compound 063] | 14.8 | > 10000
C=CC(=O)N1C[C@@H](c2nc(-c3ccc(NC(=O)c4cccc(-c5ccn[nH]5)n4)nc3)no2)C[C@H](C(F)(F)F)C1 [Compound 064] | 30.4 | > 10000
C=CC(=O)N1CCC[C@H](c2nc(-c3ccc(NC(=O)c4cccc(-c5ccn[nH]5)n4)cc3)no2)C1 [Compound 075] | 36.6 | > 10000
C=CC(=O)N1CCC[C@H](c2nc(-c3ccc(NC(=O)c4cccc(-c5ccn[nH]5)n4)c(F)c3)no2)C1 [Compound 076, (S)-N-(4-(5-(1-acryloylpiperidin-3-yl)-1,2,4-oxadiazol-3-yl)-2-fluorophenyl)-6-(1H-pyrazol-5-yl)picolinamide] | 16.4 | > 10000
C=CC(=O)N1C[C@@H](c2nc(-c3ccc(NC(=O)c4cccc(-c5ccn[nH]5)n4)cc3)no2)C[C@@H](C(F)(F)F)C1 [Compound 078] | 521 | > 10000
C=CC(=O)N1CCC[C@H](c2nc(-c3ccc(NC(=O)c4cccc(-c5ccn[nH]5)n4)c(Cl)c3)no2)C1 [Compound 079, (S)-N-(4-(5-(1-acryloylpiperidin-3-yl)-1,2,4-oxadiazol-3-yl)-2-chlorophenyl)-6-(1H-pyrazol-5-yl)picolinamide] | 4.46 | 978
C=CC(=O)N1CCC[C@H](c2nc(-c3ccc(NC(=O)c4cccc(-c5ccn[nH]5)n4)c(C(F)(F)F)c3)no2)C1 [Compound 080, (S)-N-(4-(5-(1-acryloylpiperidin-3-yl)-1,2,4-oxadiazol-3-yl)-2-(trifluoromethyl)phenyl)-6-(1H-pyrazol-5-yl)picolinamide] | 8.25 | 3620
C=CC(=O)N1CCC[C@H](c2nc(-c3ccc(NC(=O)c4cccc(-c5ccn[nH]5)n4)c(OC(F)(F)F)c3)no2)C1 [Compound 081, (S)-N-(4-(5-(1-acryloylpiperidin-3-yl)-1,2,4-oxadiazol-3-yl)-2-(trifluoromethoxy)phenyl)-6-(1H-pyrazol-5-yl)picolinamide] | 9 | 794
C=CC(=O)N1C[C@@H](c2nc(-c3ccc(NC(=O)c4cccc(-c5ccn[nH]5)n4)cc3)no2)CC(F)(F)C1 [Compound 082] | 17.6 | > 10000
C=CC(=O)N1C[C@@H](c2nc(-c3ccc(NC(=O)c4cccc(-c5ccn[nH]5)n4)cc3)no2)C[C@H](C(F)(F)F)C1 [Compound 083] | 209 | > 10000
C=CC(=O)N1CCC[C@H](c2nc(-c3ccc(NC(=O)c4cccc(-c5ccn[nH]5)n4)c(OC)c3)no2)C1 [Compound 084, (S)-N-(4-(5-(1-acryloylpiperidin-3-yl)-1,2,4-oxadiazol-3-yl)-2-methoxyphenyl)-6-(1H-pyrazol-5-yl)picolinamide] | 1.67 | 204
C=CC(=O)N1CCC[C@H](c2nc(-c3ccc(NC(=O)c4cccc(-c5[nH]ncc5C)n4)cc3)no2)C1 [Compound 085, (S)-N-(4-(5-(1-acryloylpiperidin-3-yl)-1,2,4-oxadiazol-3-yl)phenyl)-6-(4-methyl-1H-pyrazol-5-yl)picolinamide] | 6.82 | 8750
C=CC(=O)N1CCC[C@H](c2nc(-c3ccc(NC(=O)c4cccc(-c5[nH]ncc5Cl)n4)cc3)no2)C1 [Compound 086, (S)-N-(4-(5-(1-acryloylpiperidin-3-yl)-1,2,4-oxadiazol-3-yl)phenyl)-6-(4-chloro-1H-pyrazol-5-yl)picolinamide] | 9.16 | > 10000
C=CC(=O)N1CCC[C@H](c2nc(-c3ccc(NC(=O)c4cccc(-c5cc(C#N)n(C)c5)n4)cc3)no2)C1 [Compound 087] | 5720 | > 10000
C=CC(=O)N1CCC[C@H](c2nc(-c3ccc(NC(=O)c4cccc(-c5[nH]ncc5C)n4)c(F)c3)no2)C1 [Compound 088, (S)-N-(4-(5-(1-acryloylpiperidin-3-yl)-1,2,4-oxadiazol-3-yl)-2-fluorophenyl)-6-(4-methyl-1H-pyrazol-5-yl)picolinamide] | 12.7 | > 10000
C=CC(=O)N1CCC[C@H](c2nc(-c3ccc(NC(=O)c4cccc(-c5[nH]ncc5Cl)n4)c(F)c3)no2)C1 [Compound 089, (S)-N-(4-(5-(1-acryloylpiperidin-3-yl)-1,2,4-oxadiazol-3-yl)-2-fluorophenyl)-6-(4-chloro-1H-pyrazol-5-yl)picolinamide] | 21.1 | > 10000
C=CC(=O)N1C[C@@H](c2nc(-c3ccc(NC(=O)c4cccc(-c5ccn[nH]5)n4)c(F)c3)no2)CC(F)(F)C1 [Compound 090, (S)-N-(4-(5-(1-acryloyl-5,5-difluoropiperidin-3-yl)-1,2,4-oxadiazol-3-yl)-2-fluorophenyl)-6-(1H-pyrazol-5-yl)picolinamide] | 6.62 | > 10000

Next, values leading:

IC50 (IRAK1) [nM] | IC50 (IRAK4) [nM] | SMILES
2.6 | 333 | C=CC(=O)N1CCC[C@H](C(=O)Nc2ccc(-c3nc(-c4cccc(-c5ccn[nH]5)n4)no3)nc2)C1 [Compound 020]
5.35 | 376 | C=CC(=O)N1CCC[C@H](C(=O)Nc2ccc(-c3ncc(-c4cccc(-c5ccn[nH]5)n4)o3)nc2)C1 [Compound 022]
6.07 | 244 | C=CC(=O)N1CCC[C@H](C(=O)Nc2ccc(-c3ncc(-c4cccc(-c5ccn[nH]5)n4)s3)nc2)C1 [Compound 023]
6.54 | 474 | C=CC(=O)N1CCC[C@H](C(=O)Nc2ccc(-c3ncc(-c4cccc(-c5ccn[nH]5)n4)[nH]3)nc2)C1 [Compound 024]
2.22 | 353 | C=CC(=O)N1CCC[C@H](C(=O)Nc2ccc(Nc3nsc4ccc(-c5ccn[nH]5)nc34)cc2)C1 [Compound 025]
6.86 | 365 | C=CC(=O)N1CCC[C@H](C(=O)Nc2ccc(Nc3n[nH]c4ccc(-c5ccn[nH]5)nc34)cc2)C1 [Compound 026]
84.3 | > 10000 | C=CC(=O)N1CCC[C@H](c2nc(-c3ccc(NC(=O)c4cccc(-c5ccn[nH]5)n4)cn3)no2)C1 [Compound 061, (S)-N-(6-(5-(1-acryloylpiperidin-3-yl)-1,2,4-oxadiazol-3-yl)pyridin-3-yl)-6-(1H-pyrazol-5-yl)picolinamide]
324 | 5760 | C=CC(=O)N1CCC[C@H](C(=O)Nc2ccc(NC(=O)c3csc(-c4ccn[nH]4)n3)nc2)C1 [Compound 068, (S)-N-(5-(1-acryloylpiperidine-3-carboxamido)pyridin-2-yl)-2-(1H-pyrazol-5-yl)thiazole-4-carboxamide]
1200 | 3330 | C=CC(=O)N1CCC[C@H](C(=O)Nc2ccc(-c3cnc(-c4cccc(-c5ccn[nH]5)n4)[nH]3)cc2)C1 [Compound 070, (S)-N-(4-(2-(6-(1H-pyrazol-5-yl)pyridin-2-yl)-1H-imidazol-5-yl)phenyl)-1-acryloylpiperidine-3-carboxamide]
609 | 8220 | C=CC(=O)N1CCC[C@H](C(=O)Nc2ccc(NC(=O)c3csc(-c4ccn[nH]4)n3)cc2)C1 [Compound 071, (S)-N-(4-(1-acryloylpiperidine-3-carboxamido)phenyl)-2-(1H-pyrazol-5-yl)thiazole-4-carboxamide]
